Source: patent US10604526B2, “Chemokine receptor modulators and uses thereof” (RAPT THERAPEUTICS, INC., priority 2016, dated 2020)

Biological target: T1, hCCR4 (Homo sapiens, UniProt P51679)
T1 sequence (P51679 1-360): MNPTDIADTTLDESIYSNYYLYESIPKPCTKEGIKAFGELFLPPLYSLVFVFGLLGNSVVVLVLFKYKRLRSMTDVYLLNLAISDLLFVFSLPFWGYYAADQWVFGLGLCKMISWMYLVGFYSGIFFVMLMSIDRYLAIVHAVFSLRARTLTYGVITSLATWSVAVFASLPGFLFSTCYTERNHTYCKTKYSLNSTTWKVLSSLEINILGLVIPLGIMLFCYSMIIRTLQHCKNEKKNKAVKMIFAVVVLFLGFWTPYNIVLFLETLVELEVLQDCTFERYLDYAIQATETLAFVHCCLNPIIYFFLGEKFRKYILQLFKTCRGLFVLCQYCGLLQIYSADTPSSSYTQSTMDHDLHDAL
Test: Calcium flux assay
Type: cell-based
Settings: Chem5-hCCR4 cells, CCL22 at EC80 of 1.5 nM, FLIPR Calcium 6 dye; read-out: Potency (IC50)
Summary of the method: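 Chem5 cells expressing hCCR4 were serum-starved for 2 h, loaded with Calcium 6 dye plus 2.5 mM probenecid, then given compound for 1 h at 37 °C (0.5% DMSO). CCL22 was added from a 7.5 nM working solution (5× EC80 of 1.5 nM). IC50 came from ΔF/Fmin (485/525 nm) by 4-parameter fit.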

Compound | IC50
Cc1nn([C@H](C)c2ccc(Cl)cc2Cl)c2nc(N3CC([C@@H]4CCCN(CCO)C4)C3)ncc12 (single isomer, unassigned) [Example 39] | > 500 nM
C[C@H](c1ccc(Cl)cc1Cl)n1nc(C(F)(F)F)c2ncc(N3CC([C@H]4CCCN(CCO)C4)C3)nc21 (single isomer, unassigned) [Example 43] | < 100 nM
C[C@H](c1ccc(Cl)cc1Cl)n1nc(C(F)(F)F)c2ncc(N3CC([C@@H]4CCCN(CCO)C4)C3)nc21 (single isomer, unassigned) [Example 44] | 100 to 500 nM
CC(C)C(=O)NCCN1CCC[C@@H](C2CN(c3cnc4c(C(F)(F)F)nn([C@H](C)c5ccc(Cl)cc5Cl)c4n3)C2)C1 (single isomer, unassigned) [Example 51] | 100 to 500 nM
CC(C)C(=O)NCCN1CCC[C@H](C2CN(c3cnc4c(C(F)(F)F)nn([C@H](C)c5ccc(Cl)cc5Cl)c4n3)C2)C1 (single isomer, unassigned) [Example 52] | < 100 nM
CC(=O)NCCN1CCC[C@@H](C2CN(c3cnc4c(C(F)(F)F)nn([C@H](C)c5ccc(Cl)cc5Cl)c4n3)C2)C1 (single isomer, unassigned) [Example 53] | 100 to 500 nM
CC(=O)NCCN1CCC[C@H](C2CN(c3cnc4c(C(F)(F)F)nn([C@H](C)c5ccc(Cl)cc5Cl)c4n3)C2)C1 (single isomer, unassigned) [Example 54] | < 100 nM
CNC(=O)CCCN1CCC[C@@H](C2CN(c3cnc4c(C#N)nn([C@H](C)c5ccc(Cl)cc5Cl)c4n3)C2)C1 (single isomer, unassigned) [Example 68] | 100 to 500 nM
CNC(=O)CCCN1CCC[C@H](C2CN(c3cnc4c(C#N)nn([C@H](C)c5ccc(Cl)cc5Cl)c4n3)C2)C1 (single isomer, unassigned) [Example 69] | < 100 nM
C[C@H](c1ccc(Cl)cc1Cl)n1nc(C#N)c2ncc(N3CC([C@@H]4CCCN(CC(C)(C)O)C4)C3)nc21 (single isomer, unassigned) [Example 70] | < 100 nM
C[C@H](c1ccc(Cl)cc1Cl)n1nc(C#N)c2ncc(N3CC([C@H]4CCCN(CC(C)(C)O)C4)C3)nc21 (single isomer, unassigned) [Example 71] | < 100 nM
CCCN1CCC[C@@H](C2CN(c3cnc4c(C#N)nn([C@H](C)c5ccc(Cl)cc5Cl)c4n3)C2)C1 (single isomer, unassigned) [Example 72] | 100 to 500 nM
CCCN1CCC[C@H](C2CN(c3cnc4c(C#N)nn([C@H](C)c5ccc(Cl)cc5Cl)c4n3)C2)C1 (single isomer, unassigned) [Example 73] | < 100 nM
C[C@H](c1ccc(Cl)cc1Cl)n1nc(C#N)c2ncc(N3CC([C@@H]4CCCN(CCCC(=O)N(C)C)C4)C3)nc21 (single isomer, unassigned) [Example 74] | 100 to 500 nM
C[C@H](c1ccc(Cl)cc1Cl)n1nc(C#N)c2ncc(N3CC([C@H]4CCCN(CCCC(=O)N(C)C)C4)C3)nc21 (single isomer, unassigned) [Example 75] | < 100 nM
CC(C)N1CCC[C@@H](C2CN(c3cnc4c(C#N)nn([C@H](C)c5ccc(Cl)cc5Cl)c4n3)C2)C1 (single isomer, unassigned) [Example 76] | 100 to 500 nM
CC(C)N1CCC[C@H](C2CN(c3cnc4c(C#N)nn([C@H](C)c5ccc(Cl)cc5Cl)c4n3)C2)C1 (single isomer, unassigned) [Example 77] | < 100 nM
C[C@H](c1ccc(Cl)cc1Cl)n1nc(C#N)c2ncc(N3CC([C@H]4CCCN(CCCC(N)=O)C4)C3)nc21 (single isomer, unassigned) [Example 78] | < 100 nM
C[C@H](c1ccc(Cl)cc1Cl)n1nc(C#N)c2ncc(N3CC([C@@H]4CCCN(CCCC(N)=O)C4)C3)nc21 (single isomer, unassigned) [Example 79] | 100 to 500 nM
C[C@H](c1ccc(Cl)cc1Cl)n1nc(C#N)c2ncc(N3CC([C@H]4CCCN(Cc5ncc[nH]5)C4)C3)nc21 (single isomer, unassigned) [Example 80] | < 100 nM
C[C@H](c1ccc(Cl)cc1Cl)n1nc(C#N)c2ncc(N3CC([C@@H]4CCCN(Cc5ncc[nH]5)C4)C3)nc21 (single isomer, unassigned) [Example 81] | 100 to 500 nM
COC(=O)NCCN1CCC[C@H](C2CN(c3cnc4c(C)nn([C@H](C)c5ccc(Cl)cc5Cl)c4n3)C2)C1 (single isomer, unassigned) [Example 84] | < 100 nM
COC(=O)NCCN1CCC[C@@H](C2CN(c3cnc4c(C)nn([C@H](C)c5ccc(Cl)cc5Cl)c4n3)C2)C1 (single isomer, unassigned) [Example 85] | < 100 nM
CC(=O)NCCN1CCC[C@@H](C2CN(c3cnc4c(C(F)(F)F)nn([C@H](C)c5ccc(Cl)cc5Cl)c4n3)C2)C1 (single isomer, unassigned) [Example 86] | 100 to 500 nM
CC(=O)NCCN1CCCC(C2CN(c3cnc4c(C(F)(F)F)nn([C@H](C)c5ccc(Cl)cc5Cl)c4n3)C2)C1 (single isomer, unassigned) [Example 87] | < 100 nM
CC(C)C(=O)NCCN1CCC[C@@H](C2CN(c3cnc4c(C(F)(F)F)nn([C@H](C)c5ccc(Cl)cc5Cl)c4n3)C2)C1 (single isomer, unassigned) [Example 88] | 100 to 500 nM
CC(C)C(=O)NCCN1CCC[C@H](C2CN(c3cnc4c(C(F)(F)F)nn([C@H](C)c5ccc(Cl)cc5Cl)c4n3)C2)C1 (single isomer, unassigned) [Example 89] | < 100 nM

More lines, now with the values ahead:

IC50 | Compound
< 100 nM | Cc1nn([C@H](C)c2ccc(Cl)cc2Cl)c2nc(N3CC([C@H]4CCCN(CCNC(=O)C(C)C)C4)C3)cnc12 (single isomer, unassigned) [Example 90]
< 100 nM | Cc1nn([C@H](C)c2ccc(Cl)cc2Cl)c2nc(N3CC([C@@H]4CCCN(CCNC(=O)C(C)C)C4)C3)cnc12 (single isomer, unassigned) [Example 91]
< 100 nM | CC(=O)NCCN1CCC[C@H](C2CN(c3cnc4c(C#N)nn([C@H](C)c5ccc(Cl)cc5Cl)c4n3)C2)C1 (single isomer, unassigned) [Example 92]
< 100 nM | CC(=O)NCCN1CCC[C@@H](C2CN(c3cnc4c(C#N)nn([C@H](C)c5ccc(Cl)cc5Cl)c4n3)C2)C1 (single isomer, unassigned) [Example 93]
100 to 500 nM | C[C@H](c1ccc(Cl)cc1Cl)n1nc(C#N)c2ncc(N3CC([C@@H]4CCN(CCCO)C4)C3)nc21 (single isomer, unassigned) [Example 94]
< 100 nM | C[C@H](c1ccc(Cl)cc1Cl)n1nc(C#N)c2ncc(N3CC([C@H]4CCN(CCCO)C4)C3)nc21 (single isomer, unassigned) [Example 95]
100 to 500 nM | Cc1nn([C@H](C)c2ccc(Cl)cc2Cl)c2nc(N3CC([C@@H]4CCCN(CCNS(=O)(=O)C(C)C)C4)C3)cnc12 (single isomer, unassigned) [Example 96]
< 100 nM | Cc1nn([C@H](C)c2ccc(Cl)cc2Cl)c2nc(N3CC(C4CCCN(CCNS(=O)(=O)C(C)C)C4)C3)cnc12 (single isomer, unassigned) [Example 97]
100 to 500 nM | Cc1nn([C@H](C)c2ccc(Cl)cc2Cl)c2nc(N3CC([C@@H]4CCCN(CCNS(C)(=O)=O)C4)C3)cnc12 (single isomer, unassigned) [Example 98]
< 100 nM | Cc1nn([C@H](C)c2ccc(Cl)cc2Cl)c2nc(N3CC([C@H]4CCCN(CCNS(C)(=O)=O)C4)C3)cnc12 (single isomer, unassigned) [Example 99]
< 100 nM | CC(=O)NCCN1CCC[C@H](C2CN(c3cnc4c(C)nn([C@H](C)c5ccc(Cl)cc5Cl)c4n3)C2)C1 (single isomer, unassigned) [Example 100]
< 100 nM | CC(=O)NCCN1CCC[C@@H](C2CN(c3cnc4c(C)nn([C@H](C)c5ccc(Cl)cc5Cl)c4n3)C2)C1 (single isomer, unassigned) [Example 101]
< 100 nM | C[C@H](c1ccc(Cl)cc1Cl)n1nc(C#N)c2ncc(N3CC([C@H]4CCCN(CCCS(N)(=O)=O)C4)C3)nc21 (single isomer, unassigned) [Example 107]
100 to 500 nM | C[C@H](c1ccc(Cl)cc1Cl)n1nc(C#N)c2ncc(N3CC([C@@H]4CCCN(CCCS(N)(=O)=O)C4)C3)nc21 (single isomer, unassigned) [Example 108]
< 100 nM | CC(C)S(=O)(=O)NCCN1CCC[C@H](C2CN(c3cnc4c(C(F)(F)F)nn([C@H](C)c5ccc(Cl)cc5Cl)c4n3)C2)C1 (single isomer, unassigned) [Example 109]
100 to 500 nM | CC(C)S(=O)(=O)NCCN1CCC[C@@H](C2CN(c3cnc4c(C(F)(F)F)nn([C@H](C)c5ccc(Cl)cc5Cl)c4n3)C2)C1 (single isomer, unassigned) [Example 110]
100 to 500 nM | C[C@H](c1ccc(Cl)cc1Cl)n1nc(C#N)c2ncc(N3CC([C@@H]4CCCN(Cc5cnc[nH]5)C4)C3)nc21 (single isomer, unassigned) [Example 111]
< 100 nM | C[C@H](c1ccc(Cl)cc1Cl)n1nc(C#N)c2ncc(N3CC([C@H]4CCCN(Cc5cnc[nH]5)C4)C3)nc21 (single isomer, unassigned) [Example 112]
100 to 500 nM | Cc1nn([C@H](C)c2ccc(Cl)cc2Cl)c2nc(N3CC([C@@H]4CCCN(CCCS(C)(=O)=O)C4)C3)cnc12 (single isomer, unassigned) [Example 113]
